Data from patent publication US12239645B2, “Targeted dosing for the treatment of complement mediated disorders” (Achillion Pharmaceuticals, Inc., priority 2018, dated 2025).
In brackets after ≈: the same amount, converted by molar mass. Where two headings read alike, the source gives them in different places.

Tested on: complement alternative pathway (AP) activity
Test: MAD study: ex vivo serum AP hemolysis activity and PK-PD analysis
Type: in vivo, human
Details: for minimum AP activity following dosing: Days 7 and 14
Experimental: Ex vivo serum AP hemolysis assays were conducted in 96-well microtiter plates divided into two parts, one for hemolysis and the other for serum background color subtraction. Briefly, a suspension of rabbit red blood cells (RBCs) was centrifuged at 800×g at 4° C. for 3 minutes and the supernatant was removed to get rid of the RBC debris. The RBC cell pellet was re-suspended gently with pre-chilled gelatin veronal buffer (GVB0) containing 10 mM MgEGTA to a density of 5×10^8 cells/mL. Other controls including buffer, spontaneous rabbit RBC lysis, 100% RBC lysis (in water), and normal serum control were set up alongside the test samples as well. Serum was placed in a 37° C. water-bath until mostly thawed and immediately transferred to ice bath. 20% serum was prepared with GVB0-MgEGTA buffer and kept at ice bath before testing. Reactions were carried out in a 96 well plate by mixing 50 μl of 20% serum with equal volume of GVB0-MgEGTA buffer and then quickly adding 20 μl of RBC suspension. The plate was shaken on a microtiter plate shaker for 5 seconds and then incubated at 37° C. for 30 minutes. Halfway during the incubation period, the plate was shaken for another 5 seconds as described above. At the end of the incubation, the plate was centrifuged at 800×g at 4° C. for 3 minutes to pellet the un-lysed rabbit RBCs. 80 μl of supernatant was removed carefully from all wells and transferred to a clear flat-bottom microtiter plate for the measurement of optical absorbance at 405 nm (A405) in a Molecular Devices Spectramax Plus plate reader. AP hemolysis in each well was calculated relative to the activity of the NHS reference sample formulas as follows: Hemolysis (%)=((Hm−Bk)−(Sp−Bf))/((NH−BkNH)−(Sp−Bf))×100%
where Hm=A405 in the hemolysis well, Bk=A405 in the corresponding background well, Sp=mean A405 in the spontaneous hemolysis wells, Bf=mean A405 in the buffer alone wells, NH=mean A405 in the reference NHS wells, and BkNH=mean A405 in the corresponding background wells.
The PK-PD relationship was evaluated using time-matched plasma Compound 1 concentrations and serum AP inhibition values by non-linear regression with GraphPad Prism (La Jolla, CA) using the following two models: • 1. The simple Emax model to determine the 50% effective concentration (EC50): Y=E0+Emax×X/(EC50+X) where X=plasma Compound 1 concentration, Y=percent inhibition in the corresponding serum sample, E0=0% inhibition (pre-dose AP activity), and Emax=100% inhibition. • 2. The four-parameter sigmoidal model to determine EC50 and the 90% effective concentration (EC90): Y=E0+(Emax−E0)/(1+10^((Log EC50−X)×HillSlope)) where X, Y, E0, and Emax are defined as above (Emax model) and HillSlope=the slope factor or Hill slope. Pharmacodynamic and Pharmacokinetic Results AP Activity Measured with AP Hemolysis
A multiple ascending dose (MAD) study of Compound 1 with two additional single-dose cohorts was also completed. […] Secondary objectives included evaluation of the pharmacokinetic (PK) profile and the relationship between Compound 1 PK and pharmacodynamic (PD) characteristics, that is, the inhibition of complement alternative pathway (AP) activity (PK/PD). In the MAD study, multiple-dose pharmacokinetics and pharmacodynamics of Compound 1 were evaluated in four dose groups administered Compound 1 (40, 80, 120 and 200 mg BID) in the fasted state for 14-days (Table 3). Eight subjects received active drug in each group; eight subjects received placebo in the first dose group (40 mg) and two subjects received placebo in each of the other three dose groups. Two additional cohorts were administered Compound 1 at single doses of 240 mg (fasted subjects) and 120 mg (fed subjects) (Table 3). The two single-dose cohorts each comprised six subjects receiving active drug and two subjects receiving placebo. […]

[1] = 40 mg BID, Day 14, AP hemolysis
[2] = 40 mg BID, Days 7 and 14 Combined Analysis, AP hemolysis
[3] = 80 mg BID, Day 14, AP hemolysis
[4] = 80 mg BID, Days 7 and 14 Combined Analysis, AP hemolysis
[5] = 120 mg BID, Day 7, AP hemolysis
[6] = 120 mg BID, Day 14, AP hemolysis
[7] = 120 mg BID, Days 7 and 14 Combined Analysis, AP hemolysis
[8] = 120 mg and 200 mg BID, 14 days, FIG. 13
[9] = 200 mg BID, Day 7, AP hemolysis
[10] = 200 mg BID, Day 14, AP hemolysis
[11] = 200 mg BID, Days 7 and 14 Combined Analysis, AP hemolysis
[12] = Homo sapiens, sigmoidal model, multiple-dose cohorts, AP hemolysis

## CC(=O)c1nn(CC(=O)N2[C@H](C(=O)Nc3nc(Br)ccc3C)C[C@@]3(C)C[C@@H]23)c2ccc(-c3cnc(C)nc3)cc12 [Compound 1, (1R,3S,5R)-2-(2-(3-acetyl-5-(2-methylpyrimidin-5-yl)-1H-indazol-1-yl)acetyl)-N-(6-bromo-3-methylpyridin-2-yl)-5-methyl-2-azabicyclo[3.1.0]hexane-3-carboxamide]
40 mg BID, Day 7, AP hemolysis
  % AUEC0-12, Mean: 49.9%
  DURATION0-12 (time with AP inhibition 90% or greater), Mean: 2.0 h
[1]
  % AUEC0-12, Mean: 61.4%
  DURATION0-12 (time with AP inhibition 90% or greater), Mean: 2.6 h
40 mg BID
  minimum AP activity following dosing: 4.00%
[2]
  % AUEC0-12, Mean: 55.6%
  DURATION0-12 (time with AP inhibition 90% or greater), Mean: 2.3 h
80 mg BID, Day 7, AP hemolysis
  % AUEC0-12, Mean: 87.4%
  DURATION0-12 (time with AP inhibition 90% or greater), Mean: 7.3 h
[3]
  % AUEC0-12, Mean: 87.7%
  DURATION0-12 (time with AP inhibition 90% or greater), Mean: 8.0 h
[4]
  % AUEC0-12, Mean: 87.6%
  DURATION0-12 (time with AP inhibition 90% or greater), Mean: 7.6 h
120 mg BID, 0 h to 10 h on Day 7 and 0 h to 12 h on Day 14
  mean AP activity: below 10%
[5]
  % AUEC0-12, Mean: 97.5%
  DURATION0-12 (time with AP inhibition 90% or greater), Mean: 10.9 h
[6]
  % AUEC0-12, Mean: 98.8%
  DURATION0-12 (time with AP inhibition 90% or greater), Mean: 11.6 h
[7]
  % AUEC0-12, Mean: 98.2%
  DURATION0-12 (time with AP inhibition 90% or greater), Mean: 11.3 h
[8]
  average reduction in AP hemolysis: over 95%
  reduction in AP hemolysis for the duration of the study: over 90%
120 mg single dose fed, from 2 h through 6 h
  serum AP hemolysis activity: ≤ 10%
200 mg BID, 0 h to 12 h on Days 7 and 14
  mean AP activity: below 10%
[9]
  % AUEC0-12, Mean: 99.5%
  DURATION0-12 (time with AP inhibition 90% or greater), Mean: 11.9 h
[10]
  % AUEC0-12, Mean: 98.8%
  DURATION0-12 (time with AP inhibition 90% or greater), Mean: 11.5 h
[11]
  % AUEC0-12, Mean: 99.1%
  DURATION0-12 (time with AP inhibition 90% or greater), Mean: 11.7 h
240 mg single dose
  time mean inhibition persisted at 90% or greater post-dose: at least 12 hours
240 mg single dose fasted, from 1.5 h through 16 h
  serum AP hemolysis activity: ≤ 10%
240 mg single dose, within two hours of dosing
  AP inhibition, all subjects: ≥ 90%
Groups 2 through 4 (80, 120, 200 mg BID)
  minimum AP activity following dosing: 0.00%
Homo sapiens, 0 h, 40 mg BID, Days 6 Through 14, AP hemolysis, read-out: AP Inhibition at 0 hr, Mean
  inhibition at 40 mg: 28.7%
Homo sapiens, 0 h, 80 mg BID, Days 6 Through 14, AP hemolysis, read-out: AP Inhibition at 0 hr, Mean
  inhibition at 80 mg: 74.1%
Homo sapiens, 0 h, 120 mg BID, Days 6 Through 14, AP hemolysis, read-out: AP Inhibition at 0 hr, Mean
  inhibition at 120 mg: 97.2%
Homo sapiens, 0 h, 200 mg BID, Days 6 Through 14, AP hemolysis, read-out: AP Inhibition at 0 hr, Mean
  inhibition at 200 mg: 97.6%
Homo sapiens, 40 mg BID, Day 7, AP hemolysis, read-out: AP Inhibition at 0 hr, Mean
  inhibition at 40 mg: 20%
Homo sapiens, 40 mg BID, Day 7, AP hemolysis, read-out: AP Inhibition at 12 hr, Mean
  inhibition at 40 mg: 17.5%
Homo sapiens, 40 mg BID, Day 14, AP hemolysis, read-out: AP Inhibition at 0 hr, Mean
  inhibition at 40 mg: 29.2%
Homo sapiens, 40 mg BID, Day 14, AP hemolysis, read-out: AP Inhibition at 12 hr, Mean
  inhibition at 40 mg: 29%
Homo sapiens, 80 mg BID, Day 7, AP hemolysis, read-out: AP Inhibition at 0 hr, Mean
  inhibition at 80 mg: 60.5%
Homo sapiens, 80 mg BID, Day 7, AP hemolysis, read-out: AP Inhibition at 12 hr, Mean
  inhibition at 80 mg: 61.5%
Homo sapiens, 80 mg BID, Day 14, AP hemolysis, read-out: AP Inhibition at 0 hr, Mean
  inhibition at 80 mg: 79%
Homo sapiens, 80 mg BID, Day 14, AP hemolysis, read-out: AP Inhibition at 12 hr, Mean
  inhibition at 80 mg: 52%
Homo sapiens, 120 mg BID, AP Hemolysis and AP Wieslab assays, read-out: AP inhibition, mean value at Ctrough
  inhibition at 120 mg: > 90%
Homo sapiens, 120 mg BID, Day 7, AP hemolysis, read-out: AP Inhibition at 0 hr, Mean
  inhibition at 120 mg: 91.8%
Homo sapiens, 120 mg BID, Day 7, AP hemolysis, read-out: AP Inhibition at 12 hr, Mean
  inhibition at 120 mg: 86%
Homo sapiens, 120 mg BID, Day 14, AP hemolysis, read-out: AP Inhibition at 0 hr, Mean
  inhibition at 120 mg: 99.7%
Homo sapiens, 120 mg BID, Day 14, AP hemolysis, read-out: AP Inhibition at 12 hr, Mean
  inhibition at 120 mg: 89.7%
Homo sapiens, 200 mg BID, AP Hemolysis and AP Wieslab assays, read-out: AP inhibition, mean value at Ctrough
  inhibition at 200 mg: > 95%
Homo sapiens, 200 mg BID, Day 7, AP hemolysis, read-out: AP Inhibition at 0 hr, Mean
  inhibition at 200 mg: 95%
Homo sapiens, 200 mg BID, Day 7, AP hemolysis, read-out: AP Inhibition at 12 hr, Mean
  inhibition at 200 mg: 97.3%
Homo sapiens, 200 mg BID, Day 14, AP hemolysis, read-out: AP Inhibition at 0 hr, Mean
  inhibition at 200 mg: 98.8%
Homo sapiens, 200 mg BID, Day 14, AP hemolysis, read-out: AP Inhibition at 12 hr, Mean
  inhibition at 200 mg: 92.8%
Homo sapiens, 12 h, 40 mg BID, Days 6 Through 14, AP hemolysis, read-out: AP Inhibition at 12 hr, Mean
  inhibition at 40 mg: 23.3%
Homo sapiens, 12 h, 80 mg BID, Days 6 Through 14, AP hemolysis, read-out: AP Inhibition at 12 hr, Mean
  inhibition at 80 mg: 56.8%
Homo sapiens, 12 h, 120 mg BID, Days 6 Through 14, AP hemolysis, read-out: AP Inhibition at 12 hr, Mean
  inhibition at 120 mg: 87.8%
Homo sapiens, 12 h, 200 mg BID, Days 6 Through 14, AP hemolysis, read-out: AP Inhibition at 12 hr, Mean
  inhibition at 200 mg: 95.1%
Homo sapiens, at Ctrough of about 80 ng/mL, MAD, ex vivo AP activity assays
  inhibition at 0.08 µg/mL: ~90%
Homo sapiens, at Ctrough of about 150 ng/mL, MAD, ex vivo AP activity assays
  inhibition at 0.15 µg/mL: > 95%
Homo sapiens, po, steady state Ctrough, oral 120 mg BID, read-out: mean alternative pathway inhibition
  inhibition at 120 mg: > 95%
Homo sapiens, simple Emax model, multiple-dose cohorts, AP hemolysis
  EC50: 0.0191 µg/mL (≈ 0.0317 µM)
Homo sapiens, sigmoidal model, multiple ascending dose, ex-vivo AP hemolysis, FIG. 12, read-out: modeled IC90 drug plasma concentration (90% inhibition level)
  IC90: 0.088 µg/mL (≈ 0.146 µM)
[12]
  EC50: 0.0246 µg/mL (≈ 0.0408 µM)
  EC90: 0.0881 µg/mL (≈ 0.146 µM)
All doses, three days after the last dose
  recovery of AP activity to approximately pre-dose levels: ≤ 17 days
Sigmoidal model, FIG. 12
  potency relative to Danicopan (IC90 plasma concentration): more than 2.5 times
single-dose cohorts 240 mg and 120 mg
  time of recovery of AP hemolysis activity to nearly pre-dose levels: ≤ 48 h
